Measurements as given in patent US20100273722A1, “MODIFIED MINIATURE PROTEINS” (Yale University, priority 2007, published 2010).
Read-outs that look alike come from different tables or passages of the source. Residues, ends and D or L forms follow the SMILES beside them.

Assays:
[1] = target: c-Src SH3 domain-GST fusion protein (Gallus gallus, UniProt P00523); experiment: Fluorescence polarization direct binding assay, c-Src SH3; set-up: species or system chicken; conditions: 50 nM fluorescently labeled ligand, read-out: Kd, c-Src SH3
Description: Polarization was measured by excitation with vertically polarized light at 485 nm and the fluorescence emission detected at 530 nm in both the vertical and horizontal directions. An average of five measurements were recorded for each well. Samples were equilibrated at room temperature for 25 min before analysis, a time sufficient for the binding reactions to reach equilibrium. The polarization data were fit using Kaleidagraph v3.6 software to Eq. 5, which is derived from first principles without assumptions. […] In this equation, Pobs is the observed polarization value at any given concentration of target protein (GST•SH3 domain). Pmin is the polarization of peptide^Flu at 50 nM in the absence of target protein. Pmax is the maximum polarization of peptide^Flu at saturation with target protein. Kd is the equilibrium dissociation constant. […] Free fits are shown. Kd values were estimated as described.

Hck kinase = target: T1, Hck kinase (Homo sapiens, UniProt P08631); experiment: Hck kinase activation, NADH-coupled assay; type: biochemical; conditions: for Activity / Fold-Activation: Activator 50 micromolar; for Fold-Activation: rate with ligand / rate without ligand; for EC50: read-out: Kact (concentration of activator at half-maximal activation)
T1 construct: His6 (N); made in house; host or cells: HighFive insect cells, co-infected with Hck and Csk baculovirus
T1 sequence (P08631 whole entry): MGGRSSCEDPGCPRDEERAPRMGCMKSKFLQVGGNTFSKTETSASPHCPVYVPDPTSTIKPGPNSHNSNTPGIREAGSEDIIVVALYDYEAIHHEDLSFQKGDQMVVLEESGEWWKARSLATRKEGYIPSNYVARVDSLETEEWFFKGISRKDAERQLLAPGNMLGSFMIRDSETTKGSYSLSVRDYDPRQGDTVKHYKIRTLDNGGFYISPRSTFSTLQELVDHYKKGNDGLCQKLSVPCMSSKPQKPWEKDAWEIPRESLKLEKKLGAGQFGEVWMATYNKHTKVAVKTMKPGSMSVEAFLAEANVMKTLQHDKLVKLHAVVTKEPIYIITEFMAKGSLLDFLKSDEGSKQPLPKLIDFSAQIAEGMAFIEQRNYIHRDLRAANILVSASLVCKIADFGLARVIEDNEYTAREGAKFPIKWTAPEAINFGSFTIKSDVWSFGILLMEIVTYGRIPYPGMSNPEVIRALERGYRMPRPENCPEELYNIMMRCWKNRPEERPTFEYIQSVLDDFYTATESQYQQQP
Description: Activation of Hck kinase was measured using a validated NADH-coupled assay as described. Briefly, purified Hck kinase (15 micromolar) was first pre-incubated with 500 micromolar ATP and 20 mM MgCl2 for about 30 min on ice to initiate autophosphorylation of Y416. The autophosphorylated product (0.55 micromolar final concentration) was then incubated in Hck Reaction Buffer (20 mM MgCl2, 0.1 mM DTT, 20 μg/mL BSA, 100 mM HEPES (pH 7.5)) for 10 min at room temperature with the indicated concentration of Nef or miniature protein. At this time the remaining assay components (1 mM PEP, 0.2 mM NADH, 6 U pyruvate kinase (Type II from rabbit muscle, Sigma), 6 U L-lactic dehydrogenase (Type II from rabbit muscle, Sigma), 600 micromolar substrate peptide, and 500 micromolar ATP) were added to initiate the reaction (total volume 200 microliters) and the absorbance at 340 nm was monitored every 10 sec for 10 min using a Beckman DU 730 UVN is Spectrophotomer. The activation constant Kact for each ligand was calculated from the initial rate as a function of ligand concentration as previously described, using Eq. 6. Fold activation was calculated by dividing the rate in the presence of ligand by the rate in the absence of ligand.
va=Vact[L]/(Kact±[L]) Equation 6.
In this equation va is velocity measured in the presence of ligand minus the velocity measured in its absence; Vact is the maximal activated velocity minus the velocity measured in the absence of ligand; [L] is the concentration of activator and Kact is concentration of activator at half-maximal activation.

[2] = Sedimentation equilibrium analytical ultracentrifugation of aPP variants, monomer-n-mer fit (self-association); type: physicochemical
Description: Analytical ultracentrifugation experiments were performed using peptide solutions prepared in Tris.Cl buffer (25 mM Tris base, 50 mM NaCl, (pH 8.0)) at the appropriate concentrations (5 micromolar to 200 micromolar). Samples were then centrifuged to equilibrium at 25° C. at 42,000, 50,000, and 60,000 rpm. Data were collected with a 0.001 cm step size and successive scans were initiated at 2 h intervals. Samples were judged to have reached equilibrium when the radial concentration gradient remained unchanged over three successive scans using the Match module of Heteroanalysis software v1.1.19. The solvent density (ρ, rho) and partial specific volume ( ν, nu) were calculated using the Sedimentation Interpretation Program “Sednterp” software v1.08.
The data for each peptide (multiple concentrations at three speeds) was first fit globally to an equation describing the sedimentation of an ideal species of molecular weight Mn (Eq. 1) using Heteroanalysis software v1.1.19:
where C represents the concentration of the sedimenting species at distances r and r0 cm from the center of rotation; ν (nu) is the partial specific volume of the sedimenting species in cc/g; ρ (rho) is the density of the supporting buffer in g/cc; ω (omega) is the angular velocity of the rotor (radians/s); Mn is the “molar” molecular weight of sedimenting species (g/mol); R is the universal gas constant (8.315×10^7 ergs K^−1 mol^−1) and T is the temperature in degrees Kelvin.
In order to quantify this self-association, the data for each peptide was next fit globally to a monomer-n-mer equilibrium model using Eq. 2:
where n is the stoichiometry of the self-associated complex. Errors were calculated for n and lnKA using f-statistics to two standard deviations.
Samples were prepared in PBS buffer and centrifuged at speeds of 42,000 (41), 50,000 (42), or 60,000 RPM (43) at 25° C. Experimental data are shown as points; lines indicate the best fit to a monomer-n-mer model described by Eq. 2.

[3] = Circular dichroism (wavelength- and temperature-dependent) of aPP variants, Example 1; type: physicochemical; conditions: 30 micromolar, Tris buffer pH 8.0, 25° C.
Description: The CD spectra of each peptide (30 micromolar) were acquired in Tris buffer (25 mM Tris base, 50 mM NaCl, (pH 8.0)) at 25° C. in a 2 mm cell. Samples were scanned between 200 and 260 nm, with signal sampling every 0.5 nm, and three successive scans were averaged. Molar residue ellipticity values were calculated from the equation MRE=(Θsample−Θbuffer)/(L×c×n×1000), where Θ is the observed signal in millidegrees, L is the length of the cuvette in cm, c is the concentration of peptide in dmol cm^−3 and n is the number of amino acids in the molecule.
Temperature-dependent CD spectra of aPP^Y7AP13SV14P (30 micromolar) were acquired in Dulbecco's PBS (1 mM KH2PO4, 155 mM NaCl, 3 mM Na2HPO4, (pH 7.4)) in a 2 mm cell. The signal at 222 nm (MRE222) was monitored between 1° C. and 80° C. using the variable temperature module provided with the instrument. Data were collected with a 0.5° C. data pitch, 5 s delay time, 20° C./hour temperature slope, 4 s response, and 1 nm bandwidth. CD spectra were obtained as the temperature was raised and when the temperature was lowered to establish the reversibility of the folding transition. Additionally, a full wavelength scan was obtained before and after the thermal melt; an overlay of the two spectra is shown in FIG. 3A. […] Mean residue ellipticity values for the temperature dependent CD spectrum were calculated from the equation MRE=Θ222 nm/(L×c×n×1000), where Θ is observed signal at 222 nm (mdeg), L is the length of, the cuvette (cm), c is the concentration of peptide (dmol/cm^3) and n is the number of amino acids in the molecule. The first derivatives of the temperature-dependent CD spectra are shown in FIG. 3B, which is a plot of δMRE222/δT (units of deg cm^2 dmol^−1 K^−1). The Tm value reported in the main text corresponds to the temperature at which ∂MRE222/∂T is a maximum.

Molecule | Kd ([1]; PBS pH 7.4) [µM] | Activity (Hck kinase) [nmol/s] | Fold-Activation (Hck kinase) | EC50 (Hck kinase) [µM] | Kd [1] [µM] | % monomer at 30 μM ([2]; 30 μM peptide, 25° C.) [%] | lnKA when n = 2 ([2]; monomer-dimer, 25° C.) | n (stoichiometry of the self-associated complex) ([2]; monomer-n-mer fit, 25° C.) | Kd (self-association, dimer) ([2]; n = 2, 25° C., calculated from ln KA) [µM] | CD ellipticity at 222 nm [3] [deg cm^2 dmol^−1]
CC[C@H](C)[C@H](NC(=O)[C@H](CC(C)C)NC(=O)[C@H](CC(=O)O)NC(=O)[C@H](CCC(=O)O)NC(=O)[C@@H](NC(=O)[C@@H]1CCCN1C(=O)[C@H](C)NC(=O)[C@H](CC(=O)O)NC(=O)[C@H](CC(=O)O)NC(=O)CNC(=O)[C@@H]1CCCN1C(=O)[C@H](CC(N)=O)NC(=O)[C@H](CCCNC(=N)N)NC(=O)[C@@H]1CCCN1C(=O)[C@@H]1CCCN1C(=O)[C@H](CC(C)C)NC(=O)[C@@H]1CCCN1C(=O)[C@@H]1CCCN1C(=O)[C@H](C)N)C(C)C)C(=O)N[C@@H](CCCNC(=N)N)C(=O)N[C@@H](Cc1ccccc1)C(=O)N[C@@H](Cc1ccc(O)cc1)C(=O)N[C@@H](CC(=O)O)C(=O)N[C@@H](CC(N)=O)C(=O)N[C@@H](CC(C)C)C(=O)N[C@@H](CCC(N)=O)C(=O)N[C@@H](CCC(N)=O)C(=O)N[C@@H](Cc1ccc(O)cc1)C(=O)N[C@@H](CC(C)C)C(=O)N[C@@H](CC(N)=O)C(=O)N[C@H](C(=O)N[C@H](C(=O)N[C@H](C(=O)N[C@@H](CCCNC(=N)N)C(=O)N[C@@H](Cc1c[nH]cn1)C(=O)N[C@@H](CCCNC(=N)N)C(=O)N[C@@H](Cc1ccc(O)cc1)C(N)=O)[C@@H](C)O)C(C)C)C(C)C [PP1] (H-APPLPPRNPGDDAPVEDLIRFYDNLQQYLNVVTRHRY-NH2) | 3.68 ± 0.06 | 83.6 ± 6.0 | 8 ± 3 | – | – | – | – | – | – | –
CC[C@H](C)[C@H](NC(=O)[C@H](CC(C)C)NC(=O)[C@H](CC(=O)O)NC(=O)[C@H](CCC(=O)O)NC(=O)[C@@H](NC(=O)[C@@H]1CCCN1C(=O)[C@H](C)NC(=O)[C@H](CC(=O)O)NC(=O)[C@H](CC(=O)O)NC(=O)CNC(=O)[C@H](CCCNC(=N)N)NC(=O)[C@H](CC(N)=O)NC(=O)[C@H](CCCNC(=N)N)NC(=O)[C@@H]1CCCN1C(=O)[C@@H]1CCCN1C(=O)[C@H](CC(C)C)NC(=O)[C@@H]1CCCN1C(=O)[C@@H]1CCCN1C(=O)[C@H](C)N)C(C)C)C(=O)N[C@@H](CCCNC(=N)N)C(=O)N[C@@H](Cc1ccccc1)C(=O)N[C@@H](Cc1ccc(O)cc1)C(=O)N[C@@H](CC(=O)O)C(=O)N[C@@H](CC(N)=O)C(=O)N[C@@H](CC(C)C)C(=O)N[C@@H](CCC(N)=O)C(=O)N[C@@H](CCC(N)=O)C(=O)N[C@@H](Cc1ccc(O)cc1)C(=O)N[C@@H](CC(C)C)C(=O)N[C@@H](CC(N)=O)C(=O)N[C@H](C(=O)N[C@H](C(=O)N[C@H](C(=O)N[C@@H](CCCNC(=N)N)C(=O)N[C@@H](Cc1c[nH]cn1)C(=O)N[C@@H](CCCNC(=N)N)C(=O)N[C@@H](Cc1ccc(O)cc1)C(N)=O)[C@@H](C)O)C(C)C)C(C)C [PP2] (H-APPLPPRNRGDDAPVEDLIRFYDNLQQYLNVVTRHRY-NH2) | 1.3 ± 0.2 | 138.8 ± 7.6 | 13 ± 5 | 48 ± 13 | – | – | – | – | – | –
CC[C@H](C)[C@H](NC(=O)[C@H](CC(C)C)NC(=O)[C@H](CC(=O)O)NC(=O)[C@H](CCC(=O)O)NC(=O)[C@@H](NC(=O)[C@@H]1CCCN1C(=O)[C@H](C)NC(=O)[C@H](CC(=O)O)NC(=O)[C@H](CCCNC(=N)N)NC(=O)[C@@H]1CCCN1C(=O)[C@H](CCCNC(=N)N)NC(=O)[C@H](CC(N)=O)NC(=O)[C@H](CCCNC(=N)N)NC(=O)[C@@H]1CCCN1C(=O)[C@@H]1CCCN1C(=O)[C@H](CC(C)C)NC(=O)[C@@H]1CCCN1C(=O)[C@@H]1CCCN1C(=O)[C@H](C)N)C(C)C)C(=O)N[C@@H](CCCNC(=N)N)C(=O)N[C@@H](Cc1ccccc1)C(=O)N[C@@H](Cc1ccc(O)cc1)C(=O)N[C@@H](CC(=O)O)C(=O)N[C@@H](CC(N)=O)C(=O)N[C@@H](CC(C)C)C(=O)N[C@@H](CCC(N)=O)C(=O)N[C@@H](CCC(N)=O)C(=O)N[C@@H](Cc1ccc(O)cc1)C(=O)N[C@@H](CC(C)C)C(=O)N[C@@H](CC(N)=O)C(=O)N[C@H](C(=O)N[C@H](C(=O)N[C@H](C(=O)N[C@@H](CCCNC(=N)N)C(=O)N[C@@H](Cc1c[nH]cn1)C(=O)N[C@@H](CCCNC(=N)N)C(=O)N[C@@H](Cc1ccc(O)cc1)C(N)=O)[C@@H](C)O)C(C)C)C(C)C [PP3] (H-APPLPPRNRPRDAPVEDLIRFYDNLQQYLNVVTRHRY-NH2) | – | 83.9 ± 5.4 | 7 ± 3 | 48 ± 22 | 0.35 ± 0.04 | – | – | – | – | –
GPSQPTYPGDDAPVEDLIRFADNLQQYLNVVTRHRY [aPP^Y21A] | – | – | – | – | – | 14 | when n = 2 13.57 | 1.86 | 1.3 | -14700
